Results: ChEMBL document CHEMBL4145687, “Novel Scaffolds for Dual Specificity Tyrosine-Phosphorylation-Regulated Kinase (DYRK1A) Inhibitors” (J Med Chem, 2018)
pIC50, pKi: −log10 of the molar value. Activity calls are given as the source filed them. The rule behind the calls is not given here.

Legend:
[1] = target: T1, Dual specificity tyrosine-phosphorylation-regulated kinase 1A (Homo sapiens, UniProt Q13627); assay: Inhibition of human DYRK1A expressed in mammalian expression system at 1 uM
[2] = target: Phosphatidylinositol 4-kinase beta (Homo sapiens) (UniProt Q9UBF8); assay: Inhibition of human PIK4CB expressed in mammalian expression system at 1 uM
[3] = target: Glycogen synthase kinase-3 alpha (Homo sapiens) (UniProt P49840); assay: Inhibition of human GSK3A expressed in bacterial expression system at 1 uM
[4] = target: Glycogen synthase kinase-3 beta (Homo sapiens) (UniProt P49841); assay: Inhibition of human GSK3beta expressed in mammalian expression system at 1 uM
[5] = target: Dual specificity protein kinase CLK3 (Homo sapiens) (UniProt P49761); assay: Inhibition of human CLK3 expressed in bacterial expression system at 1 uM
[6] = target: T1, Dual specificity tyrosine-phosphorylation-regulated kinase 1A; assay: Inhibition of EGFP-tagged DYRK1A (unknown origin) expressed in human NCI-H1299 cells expressing FLAG-tagged tau assessed as reduction in tau T212 phosphorylation at 1 to 10 uM incubated for 2 hrs by Western blot analysis; type: cell-based
[7] = target: Dual specificity tyrosine-phosphorylation-regulated kinase 1B (Homo sapiens) (UniProt Q9Y463); assay: Inhibition of human DYRK1B expressed in bacterial expression system at 1 uM
[8] = target: T1, Dual specificity tyrosine-phosphorylation-regulated kinase 1A; assay: Inhibition of human DYRK1A expressed in HEK293 cells assessed as […] at 0.1 uM by NFAT response element-driven luciferase reporter gene assay relative to harmine; type: cell-based
[9] = target: T1, Dual specificity tyrosine-phosphorylation-regulated kinase 1A; assay: Inhibition of DYRK1A (unknown origin) assessed as remaining enzyme activity at 20 uM using DYRKtide as substrate by ATP regenerative NADH consuming assay
[10] = target: Dual specificity protein kinase CLK1 (Homo sapiens) (UniProt P49759); assay: Inhibition of human CLK1 expressed in bacterial expression system at 1 uM
[11] = target: Serine/threonine-protein kinase mTOR (Homo sapiens) (UniProt P42345); assay: Inhibition of human mTOR expressed in mammalian expression system at 10 uM
[12] = target: T1, Dual specificity tyrosine-phosphorylation-regulated kinase 1A; assay: Inhibition of human DYRK1A expressed in HEK293 cells assessed as compound concentration causing 1.5 fold […] by NFAT response element-driven luciferase reporter gene assay relative to basal level; type: cell-based
[13] = target: Phosphatidylinositol 4,5-bisphosphate 3-kinase catalytic subunit gamma isoform (Homo sapiens) (UniProt P48736); assay: Inhibition of human PIK3CG expressed in mammalian expression system at 1 uM
[14] = target: T1, Dual specificity tyrosine-phosphorylation-regulated kinase 1A; assay: Inhibition of DYRK1A (unknown origin) using DYRKtide as substrate by ATP regenerative NADH consuming assay; settings: for pIC50: read-out: IC50; for pKi: read-out: Ki
[15] = target: Dual specificity protein kinase CLK2 (Homo sapiens) (UniProt P49760); assay: Inhibition of human CLK2 expressed in bacterial expression system at 10 uM
[16] = target: Mitogen-activated protein kinase 7 (Homo sapiens) (UniProt Q13164); assay: Inhibition of human ERK5 expressed in bacterial expression system at 10 uM
[17] = target: T2, Serine/threonine-protein kinase 17B (Homo sapiens) (UniProt O94768); assay: Inhibition of human DRAK2 expressed in bacterial expression system at 10 uM
T2 sequence (whole entry): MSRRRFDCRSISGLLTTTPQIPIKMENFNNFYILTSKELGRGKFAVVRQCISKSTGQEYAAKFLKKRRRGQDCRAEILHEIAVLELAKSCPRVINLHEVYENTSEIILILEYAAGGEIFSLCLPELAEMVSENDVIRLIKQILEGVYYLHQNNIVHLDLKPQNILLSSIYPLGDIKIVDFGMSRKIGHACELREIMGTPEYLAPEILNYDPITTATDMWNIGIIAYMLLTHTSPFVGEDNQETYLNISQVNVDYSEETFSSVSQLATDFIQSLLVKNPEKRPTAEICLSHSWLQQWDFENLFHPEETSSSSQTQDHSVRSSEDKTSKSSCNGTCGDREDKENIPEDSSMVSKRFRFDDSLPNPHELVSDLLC

[18] = target: T3, Serine/threonine-protein kinase 17A (Homo sapiens) (UniProt Q9UEE5); assay: Inhibition of human DRAK1 expressed in bacterial expression system at 10 uM
T3 sequence (whole entry): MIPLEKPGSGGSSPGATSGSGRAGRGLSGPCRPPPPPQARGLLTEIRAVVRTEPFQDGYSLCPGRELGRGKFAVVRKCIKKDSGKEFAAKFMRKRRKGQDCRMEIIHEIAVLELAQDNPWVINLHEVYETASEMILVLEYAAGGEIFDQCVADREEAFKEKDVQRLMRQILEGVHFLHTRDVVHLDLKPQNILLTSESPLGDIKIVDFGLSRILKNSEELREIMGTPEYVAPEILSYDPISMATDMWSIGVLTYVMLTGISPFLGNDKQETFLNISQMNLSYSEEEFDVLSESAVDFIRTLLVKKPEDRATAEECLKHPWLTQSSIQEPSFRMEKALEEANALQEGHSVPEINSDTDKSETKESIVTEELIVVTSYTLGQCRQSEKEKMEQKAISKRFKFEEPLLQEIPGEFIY

[19] = target: T1, Dual specificity tyrosine-phosphorylation-regulated kinase 1A; assay: Inhibition of human DYRK1A expressed in HEK293 cells assessed as […] at 1 uM by NFAT response element-driven luciferase reporter gene assay relative to harmine; type: cell-based
[20] = target: Glycogen synthase kinase-3 beta (Homo sapiens) (UniProt P49841); assay: Inhibition of human GSK3beta expressed in mammalian expression system at 10 uM
[21] = target: Homeodomain-interacting protein kinase 1 (Homo sapiens) (UniProt Q86Z02); assay: Inhibition of human HIPK1 expressed in mammalian expression system at 10 uM
[22] = target: Homeodomain-interacting protein kinase 2 (Homo sapiens) (UniProt Q9H2X6); assay: Inhibition of human HIPK2 expressed in mammalian expression system at 10 uM
[23] = target: Cyclin-dependent kinase 7 (Homo sapiens) (UniProt P50613); assay: Inhibition of human CDK7 expressed in mammalian expression system at 10 uM
[24] = target: Platelet-derived growth factor receptor alpha (Homo sapiens) (UniProt P16234); assay: Inhibition of human PDGFRalpha expressed in mammalian expression system at 10 uM
[25] = target: Tyrosine-protein kinase ABL1 (Homo sapiens) (UniProt P00519); assay: Inhibition of human ABL1 at 10 uM
[26] = target: Platelet-derived growth factor receptor beta (Homo sapiens) (UniProt P09619); assay: Inhibition of human PDGFRbeta expressed in bacterial expression system at 10 uM
Sequence of Platelet-derived growth factor receptor beta (Homo sapiens) (P09619 whole entry): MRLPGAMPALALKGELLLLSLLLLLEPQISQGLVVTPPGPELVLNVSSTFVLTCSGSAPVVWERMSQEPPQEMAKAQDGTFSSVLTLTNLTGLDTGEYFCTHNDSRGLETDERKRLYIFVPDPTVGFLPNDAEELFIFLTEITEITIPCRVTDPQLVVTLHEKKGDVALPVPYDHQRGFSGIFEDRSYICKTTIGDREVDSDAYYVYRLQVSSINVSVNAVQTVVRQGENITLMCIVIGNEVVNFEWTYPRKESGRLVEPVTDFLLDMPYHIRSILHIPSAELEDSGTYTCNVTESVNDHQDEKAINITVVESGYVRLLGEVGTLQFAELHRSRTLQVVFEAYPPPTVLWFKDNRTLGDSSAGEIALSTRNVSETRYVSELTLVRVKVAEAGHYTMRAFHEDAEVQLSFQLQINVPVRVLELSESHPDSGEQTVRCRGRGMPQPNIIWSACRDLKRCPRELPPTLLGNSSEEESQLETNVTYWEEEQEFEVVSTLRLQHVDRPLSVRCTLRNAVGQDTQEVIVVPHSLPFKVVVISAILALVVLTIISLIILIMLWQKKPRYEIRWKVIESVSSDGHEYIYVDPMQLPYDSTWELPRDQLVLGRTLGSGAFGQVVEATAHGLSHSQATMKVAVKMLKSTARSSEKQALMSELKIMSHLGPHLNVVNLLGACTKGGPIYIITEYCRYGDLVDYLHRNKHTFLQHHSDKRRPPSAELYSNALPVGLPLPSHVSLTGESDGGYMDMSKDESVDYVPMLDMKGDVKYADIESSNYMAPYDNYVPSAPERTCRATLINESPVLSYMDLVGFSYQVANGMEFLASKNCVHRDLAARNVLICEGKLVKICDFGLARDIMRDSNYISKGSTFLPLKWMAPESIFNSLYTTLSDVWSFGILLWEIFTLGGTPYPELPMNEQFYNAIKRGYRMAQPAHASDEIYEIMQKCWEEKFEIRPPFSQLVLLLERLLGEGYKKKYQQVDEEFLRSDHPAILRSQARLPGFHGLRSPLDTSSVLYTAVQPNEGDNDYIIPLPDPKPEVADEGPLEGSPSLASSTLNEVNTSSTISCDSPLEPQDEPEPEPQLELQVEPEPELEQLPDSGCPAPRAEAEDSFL

Sequence of Dual specificity protein kinase CLK2 (Homo sapiens) (P49760 whole entry, looked up): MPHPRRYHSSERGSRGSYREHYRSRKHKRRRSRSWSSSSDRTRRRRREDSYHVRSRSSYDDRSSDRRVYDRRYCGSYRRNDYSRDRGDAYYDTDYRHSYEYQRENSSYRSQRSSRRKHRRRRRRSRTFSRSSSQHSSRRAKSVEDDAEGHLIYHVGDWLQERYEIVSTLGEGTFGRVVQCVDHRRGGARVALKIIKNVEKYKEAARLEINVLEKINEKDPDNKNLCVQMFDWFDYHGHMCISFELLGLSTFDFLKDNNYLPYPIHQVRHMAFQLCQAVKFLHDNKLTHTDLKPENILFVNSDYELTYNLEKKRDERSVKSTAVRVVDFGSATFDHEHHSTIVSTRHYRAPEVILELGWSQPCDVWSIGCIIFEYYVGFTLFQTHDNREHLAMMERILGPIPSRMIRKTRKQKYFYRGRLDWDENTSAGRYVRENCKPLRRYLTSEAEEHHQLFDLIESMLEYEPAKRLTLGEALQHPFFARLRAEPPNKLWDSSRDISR
Sequence of Glycogen synthase kinase-3 beta (Homo sapiens) (P49841 whole entry, looked up): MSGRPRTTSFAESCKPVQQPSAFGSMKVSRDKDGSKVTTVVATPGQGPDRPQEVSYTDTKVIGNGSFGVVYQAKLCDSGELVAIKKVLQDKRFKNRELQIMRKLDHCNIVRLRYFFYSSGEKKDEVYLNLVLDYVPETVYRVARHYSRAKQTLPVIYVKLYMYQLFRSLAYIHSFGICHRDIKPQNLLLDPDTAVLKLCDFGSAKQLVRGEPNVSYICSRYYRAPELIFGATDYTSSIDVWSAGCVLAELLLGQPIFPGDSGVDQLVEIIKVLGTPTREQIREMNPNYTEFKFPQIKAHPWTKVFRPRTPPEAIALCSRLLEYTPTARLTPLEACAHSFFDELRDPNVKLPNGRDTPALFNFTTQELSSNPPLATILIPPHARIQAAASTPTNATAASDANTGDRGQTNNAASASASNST
Sequence of Glycogen synthase kinase-3 alpha (Homo sapiens) (P49840 2-483 limits assumed): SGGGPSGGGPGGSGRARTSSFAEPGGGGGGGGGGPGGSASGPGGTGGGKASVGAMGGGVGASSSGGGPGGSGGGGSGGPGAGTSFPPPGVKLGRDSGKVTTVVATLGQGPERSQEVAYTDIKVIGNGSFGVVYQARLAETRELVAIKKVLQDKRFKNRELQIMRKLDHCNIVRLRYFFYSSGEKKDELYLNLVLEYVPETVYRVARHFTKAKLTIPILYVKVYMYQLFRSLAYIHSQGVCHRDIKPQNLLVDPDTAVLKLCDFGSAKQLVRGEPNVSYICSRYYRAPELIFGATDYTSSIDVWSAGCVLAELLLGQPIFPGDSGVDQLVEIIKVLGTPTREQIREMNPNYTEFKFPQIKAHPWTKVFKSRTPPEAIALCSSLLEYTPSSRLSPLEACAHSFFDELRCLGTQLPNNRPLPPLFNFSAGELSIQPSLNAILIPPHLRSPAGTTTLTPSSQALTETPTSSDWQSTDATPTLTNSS
Sequence of Dual specificity protein kinase CLK1 (Homo sapiens) (P49759 whole entry, looked up): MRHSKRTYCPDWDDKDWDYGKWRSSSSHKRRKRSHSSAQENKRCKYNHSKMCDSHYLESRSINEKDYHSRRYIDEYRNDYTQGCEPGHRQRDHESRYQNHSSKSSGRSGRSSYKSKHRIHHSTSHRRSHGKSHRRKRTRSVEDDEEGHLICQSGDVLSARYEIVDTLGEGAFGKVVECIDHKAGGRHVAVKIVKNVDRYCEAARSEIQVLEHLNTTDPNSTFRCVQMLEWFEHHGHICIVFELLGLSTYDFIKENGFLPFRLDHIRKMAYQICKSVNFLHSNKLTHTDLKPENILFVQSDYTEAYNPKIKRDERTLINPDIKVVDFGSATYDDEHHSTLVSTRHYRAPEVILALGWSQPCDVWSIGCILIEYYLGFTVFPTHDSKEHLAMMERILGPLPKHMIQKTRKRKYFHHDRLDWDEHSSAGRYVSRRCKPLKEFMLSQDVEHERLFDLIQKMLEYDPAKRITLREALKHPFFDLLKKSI
Sequence of Mitogen-activated protein kinase 7 (Homo sapiens) (Q13164 2-816 limits assumed): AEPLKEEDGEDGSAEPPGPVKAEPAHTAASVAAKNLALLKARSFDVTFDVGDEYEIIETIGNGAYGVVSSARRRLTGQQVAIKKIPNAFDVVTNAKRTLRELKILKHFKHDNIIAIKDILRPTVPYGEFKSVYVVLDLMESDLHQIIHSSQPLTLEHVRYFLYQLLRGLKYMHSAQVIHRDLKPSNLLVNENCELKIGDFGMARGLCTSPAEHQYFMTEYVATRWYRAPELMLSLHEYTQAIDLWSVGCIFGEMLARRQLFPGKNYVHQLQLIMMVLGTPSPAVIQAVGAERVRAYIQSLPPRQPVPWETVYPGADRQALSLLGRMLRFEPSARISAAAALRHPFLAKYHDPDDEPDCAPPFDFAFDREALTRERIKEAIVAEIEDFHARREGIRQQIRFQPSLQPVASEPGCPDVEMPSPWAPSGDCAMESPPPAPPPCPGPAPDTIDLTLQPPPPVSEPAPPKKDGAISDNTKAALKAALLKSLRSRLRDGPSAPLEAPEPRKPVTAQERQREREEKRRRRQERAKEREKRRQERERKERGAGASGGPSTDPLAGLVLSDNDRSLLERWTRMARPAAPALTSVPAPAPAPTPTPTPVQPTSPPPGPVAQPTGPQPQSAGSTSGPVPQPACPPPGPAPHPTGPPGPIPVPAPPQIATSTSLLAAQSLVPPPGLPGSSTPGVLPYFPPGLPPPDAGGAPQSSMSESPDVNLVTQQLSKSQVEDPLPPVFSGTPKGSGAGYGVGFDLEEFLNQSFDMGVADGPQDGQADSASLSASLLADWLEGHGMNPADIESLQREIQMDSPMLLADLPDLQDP
Sequence of Phosphatidylinositol 4-kinase beta (Homo sapiens) (Q9UBF8 2-816 limits assumed): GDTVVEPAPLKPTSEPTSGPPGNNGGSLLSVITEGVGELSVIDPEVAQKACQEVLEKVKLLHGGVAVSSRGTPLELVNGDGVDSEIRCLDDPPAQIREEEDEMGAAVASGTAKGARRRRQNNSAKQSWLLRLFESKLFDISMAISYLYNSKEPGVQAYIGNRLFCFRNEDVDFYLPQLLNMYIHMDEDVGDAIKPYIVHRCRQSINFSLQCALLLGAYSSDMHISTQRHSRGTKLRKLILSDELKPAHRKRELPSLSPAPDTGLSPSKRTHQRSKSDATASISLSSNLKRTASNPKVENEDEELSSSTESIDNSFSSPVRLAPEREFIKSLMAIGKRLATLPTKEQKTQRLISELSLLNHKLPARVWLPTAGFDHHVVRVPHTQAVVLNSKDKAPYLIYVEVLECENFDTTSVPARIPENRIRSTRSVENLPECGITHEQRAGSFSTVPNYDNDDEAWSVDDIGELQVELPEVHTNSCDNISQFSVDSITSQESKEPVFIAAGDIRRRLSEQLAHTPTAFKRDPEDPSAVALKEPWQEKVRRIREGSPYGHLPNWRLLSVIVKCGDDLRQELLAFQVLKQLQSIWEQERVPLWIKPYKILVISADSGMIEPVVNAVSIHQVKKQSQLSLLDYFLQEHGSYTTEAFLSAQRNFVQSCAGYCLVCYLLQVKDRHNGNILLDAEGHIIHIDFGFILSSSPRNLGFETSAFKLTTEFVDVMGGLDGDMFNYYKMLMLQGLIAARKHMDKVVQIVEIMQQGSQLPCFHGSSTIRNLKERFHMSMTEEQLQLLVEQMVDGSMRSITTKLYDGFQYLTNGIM
Sequence of Cyclin-dependent kinase 7 (Homo sapiens) (P50613 whole entry): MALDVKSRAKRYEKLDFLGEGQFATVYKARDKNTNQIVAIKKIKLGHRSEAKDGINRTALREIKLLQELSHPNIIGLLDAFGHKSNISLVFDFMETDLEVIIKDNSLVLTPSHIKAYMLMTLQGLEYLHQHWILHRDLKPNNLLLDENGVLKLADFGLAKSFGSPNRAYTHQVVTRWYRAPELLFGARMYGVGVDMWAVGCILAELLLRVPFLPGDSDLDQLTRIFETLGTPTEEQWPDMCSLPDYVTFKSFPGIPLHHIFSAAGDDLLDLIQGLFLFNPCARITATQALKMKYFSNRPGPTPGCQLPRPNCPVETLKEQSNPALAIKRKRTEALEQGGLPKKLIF

SMILES | inhibition [6] | Activity [9] [%] | Activity [12] | pIC50 [14] | pKi [14] | inhibition [15] | also measured
O=c1ccc2cnc3ccc(-c4cn[nH]c4)cc3c2n1-c1ccc(F)cc1C(F)(F)F | Active | 2 | 0.05 to 0.1 µM | 6.27 | 6.60 | – | inhibition [1]: Active; inhibition [2]: Active; inhibition [3]: Active; inhibition [4]: Active; inhibition [5]: Active; inhibition [7]: Active; fold change (FC) [8]: 2; inhibition [10]: Active; inhibition [11]: Active; inhibition [13]: Active
C=CC(=O)Nc1ccc(C(=O)c2sc(Nc3ccc(N4CCN(C)CC4)cc3OC)nc2N)cc1 | Dose-dependent effect | 4 | inactive | 5.92 | 6.24 | Active | –
CN1C(=O)[C@H]2CCC[C@H]2N(C2CCCC2)c2nc(Nc3ccc(C(N)=O)cc3)ncc21 | Active | 15 | 0.5 to 1 µM | 5.38 | 5.70 | – | inhibition [16]: Active; inhibition [17]: Active; inhibition [18]: Active; fold change (FC) [19]: 2
NS(=O)(=O)c1ccc(-c2cnc3[nH]cc(-c4cccnc4)c3c2)cc1 | Dose-dependent effect | 0 | 1 to 5 µM | 6.67 | 6.98 | – | inhibition [12]: Dose-dependent effect
C=CC(=O)Nc1cccc(C(=O)c2sc(Nc3ccc(N4CCN(C)CC4)cc3)nc2N)c1 | Active | – | – | – | – | Active | IC50 [14]: Nd(Insoluble); Ki [14]: Nd(Insoluble)
COc1ccc(N)cc1-c1cnc(N)c(C(=O)c2cccnc2)n1 | Active | 24 | 5 to 10 µM | < 5.22 | < 5.55 | Active | inhibition [20]: Active; inhibition [21]: Active; inhibition [22]: Active; inhibition [23]: Active
O=C(NCCN1CCOCC1)Nc1cccc(-c2ccc3nc(NC(=O)C4CC4)sc3n2)c1 | Active | 11 | > 20 µM | 5.46 | 5.77 | Active | inhibition [24]: Active; inhibition [25]: Active; inhibition [26]: Active
COc1cc(N2CCN(C)CC2)ccc1Nc1nc(N)c(C(=O)c2ccccc2)s1 | Dose-dependent effect | 1.3 | 10 to 20 µM | 6.10 | 6.42 | – | –
Nc1cccc(-c2cnc3[nH]cc(-c4cccnc4)c3c2)c1 | Dose-dependent effect | 0 | 5 to 10 µM | 6.48 | 6.80 | – | –
